# Earlier results, collected in patent US7501136B2, “Deodorant composition” (Kao Corporation, priority 2003, dated 2009).
# System: Staphylococcus aureus
# Conditions: against Staphylococcus aureus
smiles,measurement,value
Cc1cc(O)ccc1C(C)C [isopropyl methylphenol],MIC (Minimum Inhibitory Concentration),0.015%
